From patent US20220106304A1, “Transcription Factor BRN2 Inhibitory Compounds as Therapeutics and Methods for Their Use” (The University of British Columbia, priority 2018, published 2022) come the findings set out here.

pIC50: −log10 of the molar value.

Data set [1] can be described thus: Liver microsome metabolic stability, MLM. In kind it is in vitro ADME. The settings on record: MLM (single value or second of two), 1 μM compound, 0.25 mg/mL protein; for Met Stab % (60 mins HLM/MLM): percent remaining at 60 min, 1 mM NADPH; for half-life at 1 µM: mouse, liver microsomes, pH 7.4, read-out: T1/2 in (mins HLM/MLM). Summed up: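 Compound (1 μM) incubated at 37 °C with mouse or human liver microsomes (0.25 mg/mL) in 50 mM phosphate pH 7.4 with 1 mM NADPH; samples quenched at 0–60 min. Parent loss by LC-MS/MS gives t½ (0.693/k) and CL'int scaled by 45 mg protein/g liver.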
Background: Microsomes from liver hold many membrane-bound enzymes, among them those of drug oxidation.

Data set [2] in a line: Liver microsome metabolic stability, HLM. The settings on record: HLM (first of two values), 1 μM compound, 0.25 mg/mL protein. The class given is in vitro ADME. As to the method:
Potassium phosphate buffer (Kphos) was prepared by adding 0.647 g potassium phosphate monobasic (KH2PO4) and 3.527 g potassium phosphate dibasic ([…]) to 400 mL of Milli-Q water. pH of the buffer was adjusted to 7.4 and volume was made up to 500 mL.
Microsomes (20 mg/mL) were diluted in KH2PO4 buffer to prepare a concentration of 0.357 mg/mL.
Stock solutions of BRN2 inhibitors were prepared in DMSO at a concentration of 1 mM
A stock solution of 3.33 mM NADPH (3.33×) was prepared by dissolving appropriate amount of NADPH in KH2PO4 buffer.
Total Incubation volume: 100 μL
Compound concentration: 1 μM
Protein Concentration: 0.25 mg/mL
An 1120 μL aliquot of Kphos buffer (50 mM, pH 7.4) containing liver microsomes (0.357 mg/mL) were added to individual 2 mL tubes (final concentration 0.25 mg/mL). Test compounds (1 mM) and positive controls were directly spiked into respective tubes to prepare a concentration of 1.428 μM (final concentration 1 μM). From the above mix, 70 μL was added to individual wells of 96 well reaction plates and pre-incubated in a 37° C. water bath for 5 min. All the reactions were initiated by adding 30 μL of 3.33 mM NADPH (final concentration 1 mM). Reactions without NADPH and buffer controls (minus NADPH) at 0 min and 60 min were also incubated to rule out non-NADPH metabolism or chemical instability in the incubation buffer. All reactions were terminated using 100 μL of ice-cold acetonitrile containing internal standard at 0, 5, 15, 30 and 60 min. The plates were centrifuged at 4000 RPM for 15 min and 100 μL aliquots were submitted for analysis by LC-MS/MS.
Samples were monitored for parent compounds disappearance in MRM mode using LC-MS/MS.
The percent remaining of test compounds and positive control in each sample was determined by considering peak area ratio in the 0 minute sample as 100%. The Half-life of compounds in microsomes is calculated by formula:
Half-life (t½) (min)=0.693/k, where k is gradient of line determined from plot of peak area ratio (compound peak area/internal standard peak area) against time.
In vitro intrinsic clearance (CL'int) (units in mL/min/kg) was calculated using the formula.
[formula] • For liver microsomes, scaling factor used was 45 mg microsomal protein per gm liver. • Indicates liver weight (gm) which varies species wise. For mice the liver weights are 90 gm.
Where data is not available “na” is inserted.

A further data set has as its system 42D^ENZR cells. Briefly: Cell proliferation (crystal violet), BRN2 expressing 42D^ENZR cells. The note with it: 42D cells, approximately 72 hours. The class given is cell-based. Here is the method:
Plate 42DENZR (˜7000 cells per well) and 16D^CRPC (˜5000 cells per well) cells in 96 well plate with a volume of 100 μL per well. • 2. Next day 1 mL aliquots of media are combined with 3× the desired concentration of compounds. The aliquots are vortexed and 50 μL of each 3× concentration is added to the 100 μL of media in each well to give the ix desired concentration.
The following are the desired concentrations:
0, 10 nM, 100 nM, 500 nM, 1 μM, 2.5 μM, 5 μM, 10 μM, 15 μM, […], 30 μM. • 3. Approximately 72 hours later, 17 μL of 10% Glutaraldehyde is added to each well and plates are placed on a shaker for 20-30 minutes. • 4. Media is washed off the fixed cells by slow submersion in a container of water. Then the water is removed by tapping the plate upside down. • 5. 75 μL of Crystal Violet™ solution is added into the 96 well plates and placed on a shaker for ˜30 minutes. • 6. Media is washed off the fixed cells by repeated slow submersion in a container of water and the plates are allowed to dry over-night. • 7. Next day, 75 μL of Sorensen Solution is accurately pipetted into each well. The plates placed on a shaker for ˜30 minutes. • 8. Absorbance is measured in the plate at 590 nm.

With `FC(F)(F)c1ccc2cc(-c3csc(-c4ccco4)n3)oc2c1` [VPC-18-51, 2-(Furan-2-yl)-4-(6-(trifluoromethyl)benzofuran-2-yl)thiazole], the “Met Stab % (60 mins HLM/MLM)” value worked out at 7% in data set [1] and 42% in data set [2] (percent remaining at 60 min, 1 mM NADPH). The half-life at 1 µM in data set [1] was determined as 16 min; in data set [2] (human, liver microsomes, pH 7.4, read-out: T1/2 in (mins HLM/MLM)), 45 min.
As a reminder, the pIC50 is the negative decadic logarithm of the IC50, by convention in mol/L. Regarding `Clc1cc2cc(-c3csc(-c4ccc[nH]4)n3)oc2cc1Cl` [VPC-18-142], in data set [1], the “Met Stab % (60 mins HLM/MLM)” value is 17% and the half-life at 1 µM was determined as 26 min. In the data set with 42D^ENZR cells, the pIC50 was 5.60.
